Measured values: PubChem BioAssay AID1963971 (Molecular Pharmacology Branch, DTP, NCI, 2024)
pIC50: −log10 of the molar value.

System: 953936-095-R-J2-PDC spheroids with HUVEC/MSC, viability
Assay: Anticancer human tumor 953936-095-R-J2-PDC patient-derived cervical squamous cell carcinoma cell line growth inhibition [PI3K]
Conditions: for pIC50: curve of first compound; for viability, T/C: stronger effect = lower value; active = viability on the fitted dose curve at most 10% of control; inactive = the rest
How it was run: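 Spheroid viability read-out. Co-cultures contained the tumor line plus HUVEC and human MSCs. Each agent was paired with a PI3K inhibitor (inavolisib, alpelisib, duvelisib, copanlisib) across half-log dilutions starting at clinical Cmax, or at 10 microM when Cmax was unknown.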

[1] = second compound 0.0316 µM, first compound 0.000316 µM
[2] = second compound 0.0316 µM, first compound 0.001 µM
[3] = second compound 0.0316 µM, first compound 0.00316 µM
[4] = second compound 0.0316 µM, first compound 0.01 µM
[5] = second compound 0.0316 µM, first compound 0.0316 µM
[6] = second compound 0.0316 µM, first compound 0.1 µM
[7] = second compound 0.1 µM, first compound 0.000316 µM
[8] = second compound 0.1 µM, first compound 0.001 µM
[9] = second compound 0.1 µM, first compound 0.00316 µM
[10] = second compound 0.1 µM, first compound 0.01 µM
[11] = second compound 0.1 µM, first compound 0.0316 µM
[12] = second compound 0.1 µM, first compound 0.1 µM
[13] = second compound 0.316 µM, first compound 0.000316 µM
[14] = second compound 0.316 µM, first compound 0.001 µM
[15] = second compound 0.316 µM, first compound 0.00316 µM
[16] = second compound 0.316 µM, first compound 0.01 µM
[17] = second compound 0.316 µM, first compound 0.0316 µM
[18] = second compound 0.316 µM, first compound 0.1 µM
[19] = second compound 1 µM, first compound 0.000316 µM
[20] = second compound 1 µM, first compound 0.001 µM
[21] = second compound 1 µM, first compound 0.00316 µM
[22] = second compound 1 µM, first compound 0.01 µM
[23] = second compound 1 µM, first compound 0.0316 µM
[24] = second compound 1 µM, first compound 0.1 µM
[25] = second compound 3.16 µM, first compound 0.000316 µM
[26] = second compound 3.16 µM, first compound 0.001 µM
[27] = second compound 3.16 µM, first compound 0.00316 µM
[28] = second compound 3.16 µM, first compound 0.01 µM
[29] = second compound 3.16 µM, first compound 0.0316 µM
[30] = second compound 3.16 µM, first compound 0.1 µM
[31] = second compound 10 µM, first compound 0.000316 µM
[32] = second compound 10 µM, first compound 0.001 µM
[33] = second compound 10 µM, first compound 0.00316 µM
[34] = second compound 10 µM, first compound 0.01 µM
[35] = second compound 10 µM, first compound 0.0316 µM
[36] = second compound 10 µM, first compound 0.1 µM
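Note: spheroids exposed to compounds for seven days before read-out.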

Cn1ncnc1[C@H]1c2n[nH]c(=O)c3cc(F)cc(c23)N[C@@H]1c1ccc(F)cc1 + Cc1nc(NC(=O)N2CCCC2C(N)=O)sc1-c1ccnc(C(C)(C)C(F)(F)F)c1
< 7.00: pIC50 (second compound 0.0316 µM) | pIC50 (second compound 0.1 µM) | pIC50 (second compound 0.316 µM)
> 9.50: pIC50 (second compound 1 µM) | pIC50 (second compound 3.16 µM) | pIC50 (second compound 10 µM)
inactive: viability, T/C [1] 91.5% | viability, T/C [2] 94.8% | viability, T/C [3] 99.5% | viability, T/C [4] 90.9% | viability, T/C [5] 94.6% | viability, T/C [6] 95.7% | viability, T/C [7] 86.6% | viability, T/C [8] 79.2% | viability, T/C [9] 83.7% | viability, T/C [10] 80.9% | viability, T/C [11] 83.3% | viability, T/C [12] 81.5% | viability, T/C [13] 63.3% | viability, T/C [14] 63.9% | viability, T/C [15] 62.8% | viability, T/C [16] 62.5% | viability, T/C [17] 66.6% | viability, T/C [18] 58.2% | viability, T/C [19] 45.1% | viability, T/C [20] 48.6% | viability, T/C [21] 44.9% | viability, T/C [22] 43.8% | viability, T/C [23] 43.2% | viability, T/C [24] 39.6% | viability, T/C [25] 27% | viability, T/C [26] 26.2% | viability, T/C [27] 26.4% | viability, T/C [28] 26.3% | viability, T/C [29] 26.5% | viability, T/C [30] 25.5% | viability, T/C [31] 11.4% | viability, T/C [32] 10.4% | viability, T/C [33] 10.1% | viability, T/C [34] 11.6% | viability, T/C [35] 12.5% | viability, T/C [36] 10.9%

CC(C)n1nc(-c2ccc3oc(N)nc3c2)c2c(N)ncnc21 + Cc1nc(NC(=O)N2CCCC2C(N)=O)sc1-c1ccnc(C(C)(C)C(F)(F)F)c1
7.73: pIC50 (second compound 0.1 µM)
active: viability, T/C [24] 8.92% | viability, T/C [30] 5.88% | viability, T/C [33] 10.2% | viability, T/C [34] 9.27% | viability, T/C [35] 6.73% | viability, T/C [36] 3.32%
inactive: viability, T/C [1] 83% | viability, T/C [2] 86.6% | viability, T/C [3] 78.5% | viability, T/C [4] 68.2% | viability, T/C [5] 44.8% | viability, T/C [6] 16.1% | viability, T/C [7] 78.4% | viability, T/C [8] 74.6% | viability, T/C [9] 69.2% | viability, T/C [10] 64.1% | viability, T/C [11] 39.2% | viability, T/C [12] 15.2% | viability, T/C [13] 66% | viability, T/C [14] 60.7% | viability, T/C [15] 56.8% | viability, T/C [16] 48.7% | viability, T/C [17] 30.8% | viability, T/C [18] 11.8% | viability, T/C [19] 45.9% | viability, T/C [20] 42.9% | viability, T/C [21] 38.4% | viability, T/C [22] 33.9% | viability, T/C [23] 19.7% | viability, T/C [25] 26% | viability, T/C [26] 24.1% | viability, T/C [27] 21.5% | viability, T/C [28] 18.3% | viability, T/C [29] 10.8% | viability, T/C [31] 11.7% | viability, T/C [32] 10.8%
> 9.50: pIC50 (second compound 1 µM) | pIC50 (second compound 3.16 µM) | pIC50 (second compound 10 µM)
7.61: pIC50 (second compound 0.0316 µM)
8.14: pIC50 (second compound 0.316 µM)
